Data as given in PMC9609070 (ACS Omega, 2022).

Key:
Type in all cases: physicochemical
[1] = Apparent thermodynamic functions of dissolution; details: Thm=303.0 K
[2] = Apparent thermodynamic functions of mixing; details: Thm=303.0 K
[3] = Preferential solvation analysis by inverse Kirkwood–Buff integrals; details: NMP+water, T=298.15 K

Cc1cnc(NC(=O)C2=C(O)c3ccccc3S(=O)(=O)N2C)s1 [Meloxicam, 4-hydroxy-2-methyl-N-(5-methyl-2-thiazolyl)-2H-1,2-benzothiazine-3-carboxamide-1,1-dioxide]
TΔsolnS° ([1]; NMP+water, x1=0.100): 0.52 kJ·mol^–1
ΔsolnG° (apparent Gibbs energy of dissolution) ([1]; NMP+water, x1=0.100): 27.40 kJ·mol^–1
ΔsolnH° (apparent enthalpy of dissolution) ([1]; NMP+water, x1=0.100): 27.92 kJ·mol^–1
ΔsolnS° (apparent entropy of dissolution) ([1]; NMP+water, x1=0.100): 1.71 J·mol^–1·K^–1
TΔsolnS° ([1]; NMP+water, x1=0.200): 2.55 kJ·mol^–1
ΔsolnG° (apparent Gibbs energy of dissolution) ([1]; NMP+water, x1=0.200): 22.34 kJ·mol^–1
ΔsolnH° (apparent enthalpy of dissolution) ([1]; NMP+water, x1=0.200): 24.89 kJ·mol^–1
ΔsolnS° (apparent entropy of dissolution) ([1]; NMP+water, x1=0.200): 8.41 J·mol^–1·K^–1
TΔsolnS° ([1]; NMP+water, x1=0.300): 3.08 kJ·mol^–1
ΔsolnG° (apparent Gibbs energy of dissolution) ([1]; NMP+water, x1=0.300): 18.38 kJ·mol^–1
ΔsolnH° (apparent enthalpy of dissolution) ([1]; NMP+water, x1=0.300): 21.46 kJ·mol^–1
ΔsolnS° (apparent entropy of dissolution) ([1]; NMP+water, x1=0.300): 10.18 J·mol^–1·K^–1
TΔsolnS° ([1]; NMP+water, x1=0.400): 2.09 kJ·mol^–1
ΔsolnG° (apparent Gibbs energy of dissolution) ([1]; NMP+water, x1=0.400): 15.31 kJ·mol^–1
ΔsolnH° (apparent enthalpy of dissolution) ([1]; NMP+water, x1=0.400): 17.40 kJ·mol^–1
ΔsolnS° (apparent entropy of dissolution) ([1]; NMP+water, x1=0.400): 6.89 J·mol^–1·K^–1
TΔsolnS° ([1]; NMP+water, x1=0.500): 1.77 kJ·mol^–1
ΔsolnG° (apparent Gibbs energy of dissolution) ([1]; NMP+water, x1=0.500): 13.00 kJ·mol^–1
ΔsolnH° (apparent enthalpy of dissolution) ([1]; NMP+water, x1=0.500): 14.78 kJ·mol^–1
ΔsolnS° (apparent entropy of dissolution) ([1]; NMP+water, x1=0.500): 5.85 J·mol^–1·K^–1
TΔsolnS° ([1]; NMP+water, x1=0.600): 6.45 kJ·mol^–1
ΔsolnG° (apparent Gibbs energy of dissolution) ([1]; NMP+water, x1=0.600): 11.42 kJ·mol^–1
ΔsolnH° (apparent enthalpy of dissolution) ([1]; NMP+water, x1=0.600): 17.87 kJ·mol^–1
ΔsolnS° (apparent entropy of dissolution) ([1]; NMP+water, x1=0.600): 21.28 J·mol^–1·K^–1
TΔsolnS° ([1]; NMP+water, x1=0.700): 15.75 kJ·mol^–1
ΔsolnG° (apparent Gibbs energy of dissolution) ([1]; NMP+water, x1=0.700): 10.45 kJ·mol^–1
ΔsolnH° (apparent enthalpy of dissolution) ([1]; NMP+water, x1=0.700): 26.20 kJ·mol^–1
ΔsolnS° (apparent entropy of dissolution) ([1]; NMP+water, x1=0.700): 51.98 J·mol^–1·K^–1
TΔsolnS° ([1]; NMP+water, x1=0.800): 14.58 kJ·mol^–1
ΔsolnG° (apparent Gibbs energy of dissolution) ([1]; NMP+water, x1=0.800): 9.52 kJ·mol^–1
ΔsolnH° (apparent enthalpy of dissolution) ([1]; NMP+water, x1=0.800): 24.10 kJ·mol^–1
ΔsolnS° (apparent entropy of dissolution) ([1]; NMP+water, x1=0.800): 48.13 J·mol^–1·K^–1
TΔsolnS° ([1]; NMP+water, x1=0.900): 10.89 kJ·mol^–1
ΔsolnG° (apparent Gibbs energy of dissolution) ([1]; NMP+water, x1=0.900): 8.60 kJ·mol^–1
ΔsolnH° (apparent enthalpy of dissolution) ([1]; NMP+water, x1=0.900): 19.49 kJ·mol^–1
ΔsolnS° (apparent entropy of dissolution) ([1]; NMP+water, x1=0.900): 35.93 J·mol^–1·K^–1
TΔsolnS° ([1]; neat NMP, x1=1.000): 13.06 kJ·mol^–1
ΔsolnG° (apparent Gibbs energy of dissolution) ([1]; neat NMP, x1=1.000): 7.99 kJ·mol^–1
ΔsolnH° (apparent enthalpy of dissolution) ([1]; neat NMP, x1=1.000): 21.05 kJ·mol^–1
ΔsolnS° (apparent entropy of dissolution) ([1]; neat NMP, x1=1.000): 43.10 J·mol^–1·K^–1
ΔmixG° (apparent Gibbs energy of mixing) ([2]; NMP+water, x1=0.100): 13.24 kJ·mol^–1
ΔmixH° (apparent enthalpy of mixing) ([2]; NMP+water, x1=0.100): 3.14 kJ·mol^–1
ΔmixS° (apparent entropy of mixing) ([2]; NMP+water, x1=0.100): –33.32 J·mol^–1·K^–1
ΔmixG° (apparent Gibbs energy of mixing) ([2]; NMP+water, x1=0.200): 8.18 kJ·mol^–1
ΔmixH° (apparent enthalpy of mixing) ([2]; NMP+water, x1=0.200): 0.11 kJ·mol^–1
ΔmixS° (apparent entropy of mixing) ([2]; NMP+water, x1=0.200): –26.62 J·mol^–1·K^–1
ΔmixG° (apparent Gibbs energy of mixing) ([2]; NMP+water, x1=0.300): 4.22 kJ·mol^–1
ΔmixH° (apparent enthalpy of mixing) ([2]; NMP+water, x1=0.300): –3.31 kJ·mol^–1
ΔmixS° (apparent entropy of mixing) ([2]; NMP+water, x1=0.300): –24.85 J·mol^–1·K^–1
ΔmixG° (apparent Gibbs energy of mixing) ([2]; NMP+water, x1=0.400): 1.15 kJ·mol^–1
ΔmixH° (apparent enthalpy of mixing) ([2]; NMP+water, x1=0.400): –7.38 kJ·mol^–1
ΔmixS° (apparent entropy of mixing) ([2]; NMP+water, x1=0.400): –28.14 J·mol^–1·K^–1
ΔmixG° (apparent Gibbs energy of mixing) ([2]; NMP+water, x1=0.500): –1.16 kJ·mol^–1
ΔmixH° (apparent enthalpy of mixing) ([2]; NMP+water, x1=0.500): –10.00 kJ·mol^–1
ΔmixS° (apparent entropy of mixing) ([2]; NMP+water, x1=0.500): –29.18 J·mol^–1·K^–1
ΔmixG° (apparent Gibbs energy of mixing) ([2]; NMP+water, x1=0.600): –2.74 kJ·mol^–1
ΔmixH° (apparent enthalpy of mixing) ([2]; NMP+water, x1=0.600): –6.91 kJ·mol^–1
ΔmixS° (apparent entropy of mixing) ([2]; NMP+water, x1=0.600): –13.74 J·mol^–1·K^–1
ΔmixG° (apparent Gibbs energy of mixing) ([2]; NMP+water, x1=0.700): –3.72 kJ·mol^–1
ΔmixH° (apparent enthalpy of mixing) ([2]; NMP+water, x1=0.700): 1.42 kJ·mol^–1
ΔmixS° (apparent entropy of mixing) ([2]; NMP+water, x1=0.700): 16.95 J·mol^–1·K^–1
ΔmixG° (apparent Gibbs energy of mixing) ([2]; NMP+water, x1=0.800): –4.65 kJ·mol^–1
ΔmixH° (apparent enthalpy of mixing) ([2]; NMP+water, x1=0.800): –0.68 kJ·mol^–1
ΔmixS° (apparent entropy of mixing) ([2]; NMP+water, x1=0.800): 13.10 J·mol^–1·K^–1
ΔmixG° (apparent Gibbs energy of mixing) ([2]; NMP+water, x1=0.900): –5.56 kJ·mol^–1
ΔmixH° (apparent enthalpy of mixing) ([2]; NMP+water, x1=0.900): –5.29 kJ·mol^–1
ΔmixS° (apparent entropy of mixing) ([2]; NMP+water, x1=0.900): 0.90 J·mol^–1·K^–1
ΔmixG° (apparent Gibbs energy of mixing) ([2]; neat NMP, x1=1.000): –6.17 kJ·mol^–1
ΔmixH° (apparent enthalpy of mixing) ([2]; neat NMP, x1=1.000): –3.73 kJ·mol^–1
ΔmixS° (apparent entropy of mixing) ([2]; neat NMP, x1=1.000): 8.07 J·mol^–1·K^–1
ΔmixG° (apparent Gibbs energy of mixing) ([2]; neat water, x1=0.000): 20.19 kJ·mol^–1
ΔmixH° (apparent enthalpy of mixing) ([2]; neat water, x1=0.000): –17.09 kJ·mol^–1
ΔmixS° (apparent entropy of mixing) ([2]; neat water, x1=0.000): –123.02 J·mol^–1·K^–1
100 δx1,3 (preferential solvation parameter by NMP) ([3]; x1=0.00): 0.00
D (derivative of Gibbs energy of transfer vs x1) ([3]; x1=0.00): –71.31 kJ·mol^–1
G1,3 (Kirkwood–Buff integral) ([3]; x1=0.00): –702.7 cm^3·mol^–1
G2,3 (Kirkwood–Buff integral) ([3]; x1=0.00): –182.2 cm^3·mol^–1
100 δx1,3 (preferential solvation parameter by NMP) ([3]; x1=0.05): –3.21
D (derivative of Gibbs energy of transfer vs x1) ([3]; x1=0.05): –64.29 kJ·mol^–1
G1,3 (Kirkwood–Buff integral) ([3]; x1=0.05): –669.9 cm^3·mol^–1
G2,3 (Kirkwood–Buff integral) ([3]; x1=0.05): –311.3 cm^3·mol^–1
δx1,3 (preferential solvation parameter by NMP) ([3]; x1=0.05): −3.21 × 10^–2
100 δx1,3 (preferential solvation parameter by NMP) ([3]; x1=0.10): –3.19
D (derivative of Gibbs energy of transfer vs x1) ([3]; x1=0.10): –57.63 kJ·mol^–1
G1,3 (Kirkwood–Buff integral) ([3]; x1=0.10): –596.6 cm^3·mol^–1
